Experimental findings from patent EP0308568A1, “Diacyl derivatives of 4-(trialkylbenzyl)-piperazinyl compounds” (CIBA-GEIGY AG, priority 1987, dated 1989) are described below.

Assay [1] deals with RNA-Polymerase von Escherichia coli (Escherichia coli, UniProt P0A8V2). Put plainly: Inhibition of RNA polymerase (antibiotic effect in vitro). In kind it is biochemical. The settings on record: not yet reached at 100 µg/ml; read-out: EC₅₀ für die Inhibition der RNA-Polymerase. From the text:
(§1) Die Ermittlung der antibiotischen Wirkung erfolgt z.B. einerseits in vitro durch die Bestimmung der mittleren effektiven Konzentration EC₅₀ für die Hemmung der RNA-Polymerase von Escherichia coli, sowie der minimalen Hemmkonzentration MIC ("minimum inhibitory concentration") im konventionellen Plattentest, andererseits in vivo an infizierten Mäusen und Ratten durch die Bestimmung von ED₅₀ (effektive Dosis, die für 50 % der Versuchstiere lebenserhaltend ist). Als Mikroorganismen werden für den vorliegenden Zweck insbesondere Mycobacterium tuberculosis TB H₃₇Rv und Staphylococcus aureus verwendet. Bei Verbindungen mit lipidsenkender Indikation wird eine antibiotische Wirksamkeit als nachteilig erachtet, da sie, insbesondere bei langfristiger Verabreichung, zur Bildung von gegen Antibiotika resistenten Stämmen von Mikroorganismen führen kann.

The subject of assay [2] is "very low density"-, "low-density"- bzw. "high density"-Lipoproteinen (VLDL, LDL bzw. HDL) im Serum. Put plainly: Lipid-lowering effect in rats: serum lipoproteins after oral dosing (arrangement A: genetically hypercholesterolaemic male rats; arrangement B: normolipaemic rats). In kind it is in vivo, Ratten. Particulars: repeated administration of 30 mg/kg daily. From the text:
Die Diacyl-Verbindungen der vorliegenden Erfindung dagegen weisen, wenn überhaupt, eine nur marginale antibiotische Wirkung auf. Ueberraschenderweise besitzen sie jedoch eine lipidsenkende Wirkung, die in Tierversuchen, vorzugsweise an Säugetieren, z.B. an Ratten, nachgewiesen werden kann. So kann die Senkung von "very low density"-, "low-density"- bzw. "high density"-Lipoproteinen (VLDL, LDL bzw. HDL) im Serum in zwei Testanordnungen, und zwar in genetisch hypercholesterolämischen männlichen Ratten (Anordnung A) und normolipämischen Ratten beiden Geschlechts (Anordnung B) gezeigt werden.
Albino-Ratten mit einem Körpergewicht von 180-240 g, die freien Zugang zu Standard-Rattenfutter und Trinkwasser haben, werden verwendet, und zwar in Anordnung A Sprague Dawley Abkömmlinge des Stammes Tif:RAI und in Anordnung B Tiere des Wistar-Stammes IVa-WI. Die Testverbindung wird in einer Polyethylenglykollösung (mittleres Molekulargewicht von 400) oral an Gruppen von 8 bis 10 Ratten verabreicht, in der Anordnung A einmal täglich um 8 Uhr vormittags während drei aufeinanderfolgenden Tagen und zweimal, um 8 Uhr und 16 Uhr, am vierten Tag, oder im Falle der Anordnung B täglich während 5 aufeinanderfolgenden Tagen. Im Experiment A werden die Tiere 16 Stunden und im Experiment B zwei Stunden nach der letzten Gabe durch Ausblutenlassen vom Hals unter Anästhesie mit Ether getötet. […]

Assay [3] has as its system Staphylococcus aureus. In words: Minimum inhibitory concentration, conventional plate test. It counts as cell-based. The settings on record: various pathogenic strains of Staphylococcus aureus.
Description: as §1

The test system of assay [4] is Staphylococcus aureus. Put plainly: Antibiotic effect in vivo in infected mice. Particulars: mice infected with Staphylococcus aureus, single dose of 200 mg/kg. Details: species or system Mäuse.
Description: as §1

Each structure is given as a SMILES string. Converted amounts (≈) assume the structure as drawn.

RNA-Polymerase von Escherichia coli, sequence (P0A800 whole entry): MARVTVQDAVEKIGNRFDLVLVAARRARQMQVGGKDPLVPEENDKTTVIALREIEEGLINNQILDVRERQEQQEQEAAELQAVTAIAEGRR
RNA-Polymerase von Escherichia coli, sequence (P0A8T7 whole entry, further chain): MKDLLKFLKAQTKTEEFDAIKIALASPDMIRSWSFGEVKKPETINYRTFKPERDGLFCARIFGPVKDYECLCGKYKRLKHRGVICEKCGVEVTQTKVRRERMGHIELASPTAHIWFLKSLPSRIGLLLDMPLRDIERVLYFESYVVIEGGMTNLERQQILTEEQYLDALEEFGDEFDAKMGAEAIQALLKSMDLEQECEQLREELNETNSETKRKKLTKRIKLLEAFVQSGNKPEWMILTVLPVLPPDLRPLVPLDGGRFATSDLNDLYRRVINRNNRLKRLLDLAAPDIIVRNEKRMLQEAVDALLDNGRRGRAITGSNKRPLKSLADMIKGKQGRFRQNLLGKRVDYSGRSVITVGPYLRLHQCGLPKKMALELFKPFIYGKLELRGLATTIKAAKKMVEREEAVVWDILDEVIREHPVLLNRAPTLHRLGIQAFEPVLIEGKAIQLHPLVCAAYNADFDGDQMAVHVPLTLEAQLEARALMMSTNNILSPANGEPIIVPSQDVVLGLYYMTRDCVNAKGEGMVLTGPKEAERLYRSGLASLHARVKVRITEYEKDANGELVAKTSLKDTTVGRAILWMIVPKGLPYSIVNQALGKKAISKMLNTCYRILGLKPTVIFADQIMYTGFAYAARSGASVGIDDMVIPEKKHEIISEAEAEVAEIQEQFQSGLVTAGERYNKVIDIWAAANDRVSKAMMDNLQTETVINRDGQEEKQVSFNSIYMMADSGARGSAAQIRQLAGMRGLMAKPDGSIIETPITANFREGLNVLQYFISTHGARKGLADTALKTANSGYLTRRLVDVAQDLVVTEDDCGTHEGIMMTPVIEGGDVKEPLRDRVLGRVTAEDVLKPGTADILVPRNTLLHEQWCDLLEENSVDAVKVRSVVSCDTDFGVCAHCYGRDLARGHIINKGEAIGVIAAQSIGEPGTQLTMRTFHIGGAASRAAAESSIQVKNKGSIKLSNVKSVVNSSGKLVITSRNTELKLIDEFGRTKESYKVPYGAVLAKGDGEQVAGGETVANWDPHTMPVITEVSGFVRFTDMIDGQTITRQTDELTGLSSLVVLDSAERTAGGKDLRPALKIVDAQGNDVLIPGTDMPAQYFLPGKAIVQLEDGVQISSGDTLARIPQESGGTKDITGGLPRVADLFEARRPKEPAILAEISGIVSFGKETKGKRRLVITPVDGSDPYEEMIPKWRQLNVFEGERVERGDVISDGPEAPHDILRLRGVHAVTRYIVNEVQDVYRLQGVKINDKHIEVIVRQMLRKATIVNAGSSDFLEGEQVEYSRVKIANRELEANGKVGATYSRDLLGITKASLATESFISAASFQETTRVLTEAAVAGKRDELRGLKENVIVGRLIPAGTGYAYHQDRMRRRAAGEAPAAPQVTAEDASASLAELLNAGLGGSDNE
RNA-Polymerase von Escherichia coli, sequence (P0A8V2 whole entry): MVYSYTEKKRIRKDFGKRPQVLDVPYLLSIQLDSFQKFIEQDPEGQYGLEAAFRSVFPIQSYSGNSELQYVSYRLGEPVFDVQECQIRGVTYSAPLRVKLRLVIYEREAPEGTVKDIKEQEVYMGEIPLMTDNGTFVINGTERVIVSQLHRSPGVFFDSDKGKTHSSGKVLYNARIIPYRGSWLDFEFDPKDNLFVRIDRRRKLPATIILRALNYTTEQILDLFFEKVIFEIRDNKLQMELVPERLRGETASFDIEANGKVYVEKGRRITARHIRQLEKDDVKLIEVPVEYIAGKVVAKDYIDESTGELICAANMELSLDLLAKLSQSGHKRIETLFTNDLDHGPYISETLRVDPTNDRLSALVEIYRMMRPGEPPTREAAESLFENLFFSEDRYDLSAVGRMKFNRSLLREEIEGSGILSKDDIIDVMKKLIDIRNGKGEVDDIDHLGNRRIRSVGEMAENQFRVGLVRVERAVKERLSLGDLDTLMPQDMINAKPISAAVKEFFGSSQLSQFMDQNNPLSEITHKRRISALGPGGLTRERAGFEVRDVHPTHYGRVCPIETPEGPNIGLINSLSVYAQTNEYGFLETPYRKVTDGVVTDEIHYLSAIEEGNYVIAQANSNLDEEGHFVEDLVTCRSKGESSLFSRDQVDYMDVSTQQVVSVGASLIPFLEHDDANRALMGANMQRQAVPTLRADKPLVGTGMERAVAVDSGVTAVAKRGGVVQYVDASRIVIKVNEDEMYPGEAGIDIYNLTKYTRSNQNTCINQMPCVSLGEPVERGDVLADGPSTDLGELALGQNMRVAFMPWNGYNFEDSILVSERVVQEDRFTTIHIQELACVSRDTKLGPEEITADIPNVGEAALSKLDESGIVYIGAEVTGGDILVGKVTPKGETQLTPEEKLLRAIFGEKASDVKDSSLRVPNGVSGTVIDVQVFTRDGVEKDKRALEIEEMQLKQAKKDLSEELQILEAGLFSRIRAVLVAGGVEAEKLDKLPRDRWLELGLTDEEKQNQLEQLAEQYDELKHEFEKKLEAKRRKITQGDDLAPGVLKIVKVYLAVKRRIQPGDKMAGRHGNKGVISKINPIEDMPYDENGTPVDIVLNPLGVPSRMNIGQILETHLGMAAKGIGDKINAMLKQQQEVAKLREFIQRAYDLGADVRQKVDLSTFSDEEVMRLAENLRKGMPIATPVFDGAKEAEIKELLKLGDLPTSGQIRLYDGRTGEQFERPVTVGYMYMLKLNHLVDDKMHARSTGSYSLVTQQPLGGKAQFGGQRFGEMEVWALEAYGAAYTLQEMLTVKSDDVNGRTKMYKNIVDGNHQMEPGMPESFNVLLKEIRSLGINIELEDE
RNA-Polymerase von Escherichia coli, sequence (P0A7Z4 whole entry, further chain): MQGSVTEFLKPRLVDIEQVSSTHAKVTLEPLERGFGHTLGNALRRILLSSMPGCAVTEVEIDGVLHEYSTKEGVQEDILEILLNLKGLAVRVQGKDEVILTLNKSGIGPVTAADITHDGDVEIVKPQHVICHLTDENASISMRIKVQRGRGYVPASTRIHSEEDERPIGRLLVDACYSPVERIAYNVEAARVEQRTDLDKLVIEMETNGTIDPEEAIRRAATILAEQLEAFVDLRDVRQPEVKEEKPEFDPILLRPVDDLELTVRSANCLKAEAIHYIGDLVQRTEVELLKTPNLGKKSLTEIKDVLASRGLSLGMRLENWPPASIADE

`COC1C=COC2(C)Oc3c(C)c(OC(=O)C(C)(C)C)c4c(c3C2=O)C(=O)C(N2CCN(Cc3c(C)cc(C)cc3C)CC2)=C(C4=O)N(C(=O)C(C)(C)C)C(=O)C(C)=CC=CC(C)C(O)C(C)C(O)C(C)C(OC(C)=O)C1C` (stereo not shown) [8-O,N-Dipivaloyl-3-[4-(2,4,6-trimethylbenzyl)-1-piperazinyl]-rifamycin S]: the EC50 in assay [1] is more than 92.6 µM. In addition, in assay [2], the “Senkung der "LDL-Fraktion"” value was 50-70%. Besides, the MIC (in general, the least concentration at which growth counts as inhibited) against Staphylococcus aureus [3] was approximately 64 µg/mL (≈ 59.2 µM). For the same molecule, the “antibiotische Wirksamkeit in vivo” value in the assay on Staphylococcus aureus [4] was “antibiotisch unwirksam”.
